Laboratory results as given in publication PMC4907692, “Engineering vanilloid-sensitivity into the rat TRPV2 channel” (eLife, 2016).
Several values for one entry are separate records, joined by “and”; a condition that tells them apart may be missing. Equal entries are not always repeated.

Key:
WT TRPV1 = molecular target: T1, WT TRPV1 (Rattus norvegicus, UniProt O35433); assay: Two-electrode voltage-clamp in Xenopus oocytes, WT TRPV1; assay type: cell-based; settings: 100 nM RTx, +60 and -60 mV
T1 construct: expressed in transfected cells; host or cells: Xenopus oocytes (cRNA injection, pGEM-HE)
T1 sequence (O35433 whole entry): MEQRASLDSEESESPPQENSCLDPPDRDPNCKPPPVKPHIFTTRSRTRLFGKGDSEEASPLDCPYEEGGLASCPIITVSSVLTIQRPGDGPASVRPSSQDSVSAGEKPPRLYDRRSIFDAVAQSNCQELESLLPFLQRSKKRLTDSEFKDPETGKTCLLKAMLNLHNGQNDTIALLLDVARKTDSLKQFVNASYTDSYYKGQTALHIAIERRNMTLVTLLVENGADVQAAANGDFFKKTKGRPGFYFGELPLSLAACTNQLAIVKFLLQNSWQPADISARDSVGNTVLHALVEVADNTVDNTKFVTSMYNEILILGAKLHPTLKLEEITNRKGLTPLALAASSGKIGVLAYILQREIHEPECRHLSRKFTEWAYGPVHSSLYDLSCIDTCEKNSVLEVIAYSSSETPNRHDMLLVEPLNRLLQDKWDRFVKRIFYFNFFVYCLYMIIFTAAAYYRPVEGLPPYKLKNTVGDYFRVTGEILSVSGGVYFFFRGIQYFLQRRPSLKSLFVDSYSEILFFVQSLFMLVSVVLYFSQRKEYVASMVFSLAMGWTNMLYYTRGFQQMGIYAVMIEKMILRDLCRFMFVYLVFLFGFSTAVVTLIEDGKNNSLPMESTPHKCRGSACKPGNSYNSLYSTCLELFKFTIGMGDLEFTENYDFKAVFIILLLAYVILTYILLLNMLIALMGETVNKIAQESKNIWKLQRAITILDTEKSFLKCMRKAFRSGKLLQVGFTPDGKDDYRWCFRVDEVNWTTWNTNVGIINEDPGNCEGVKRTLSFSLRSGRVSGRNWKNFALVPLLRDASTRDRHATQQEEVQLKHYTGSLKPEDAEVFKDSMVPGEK
From the text: To further investigate the putative vanilloid binding pocket in TRPV1, we inspected the cryo-EM structure of TRPV1, looking for residues that are located nearby to the putative RTx density (Figure 1B; regions/residues highlighted in yellow) and that differ between TRPV1 and TRPV2 channels (Figure 3—figure supplement 1; regions highlighted in magenta). […] To quantify the contribution of each of these residues to TRPV1 channel activation by RTx under our experimental conditions, we mutated each to the corresponding residue in TRPV2. We then expressed each construct in oocytes and used the two electrode voltage-clamp technique to study activation by RTx and by the non-specific TRPV channel activator 2-APB. We recorded time courses for channel activation by each agonist while stepping the membrane potential from −60 to +60 mV every 3 s from a holding potential of 0 mV using an external recording solution containing 100 mM KCl (internal K^+ concentration in a healthy oocyte is 100 mM) (Figure 3A, left). We also recorded current-voltage (I-V) relations by stepping over a wider range of voltages in the absence and presence of activators, or in the presence of ruthenium red (RR), a non-specific inhibitor of TRP channels (Figure 3A, right).
The WT rat TRPV1 and TRPV2 channels in the pcDNA3.1 vector were kindly provided by Dr. David Julius (UCSF) ([Caterina et al., 1997]; [Caterina et al., 1999]) and subcloned into the pGEM-HE vector ([Liman et al., 1992]). Mutations were introduced into rTRPV1 using a two-step PCR mutagenesis technique and the resulting constructs were verified by sequencing. All channel constructs were expressed in Xenopus oocytes and studied following 1–4 days incubation after cRNA injection (incubated at 17°C in 96 mM NaCl, 2 mM KCl, 5 mM HEPES, 1 mM MgCl2 and 1.8 mM CaCl2, 50 μg/ml gentamycin, pH 7.6 with NaOH) using the two-electrode voltage-clamp recording technique (OC-725C, Warner Instruments, Hamden, CT) with a 150 μl recording chamber. Data were filtered at 1–3 kHz and digitized at 20 kHz using pClamp software (Molecular Devices, Sunnyvale, CA). […]

[1] = molecular target: T2, full-length 1D4-tagged TRPV1 (Rattus norvegicus, UniProt O35433); assay: 3H-RTx binding to S. cerevisiae membranes containing 1D4-tagged TRPV1; settings: for Hill slope (nH): membranes
T2 construct: made in house; host or cells: S. cerevisiae BJ5457, YEpHIS vector, PMA1 promoter; isolated membranes
T2 sequence (O35433 whole entry): as above
From the text: The polymodal activation of TRPV1 has been widely conceptualized using allosteric models wherein binding of activators (such as vanilloids, protons, DkTx or voltage) are allosterically coupled to opening of the pore ([Brauchi et al., 2004]; [Jara-Oseguera et al., 2016]; [Matta and Ahern, 2007]). The allosteric nature of these interactions has begun to be explored using electrophysiological measurements of channel function ([Jara-Oseguera et al., 2016]; [Yao et al., 2010]), but has thus far not been investigated biochemically. We therefore tested whether binding of DkTx can enhance the affinity of TRPV1 for RTx, which would be predicted by an allosteric model wherein the two activators promote opening by binding more tightly to the open state. For these experiments we used a 1D4-tagged TRPV1 construct where expression in S. cerevisiae was driven by a constitutive promoter and we performed binding assays on yeast membranes where the vanilloid would have free access to the channel protein (see Methods). Under these conditions, we measured a Kd for RTx binding to 1D4-tagged TRPV1 of 0.6 nM under control conditions, about ten fold higher affinity than what we measured in intact cells using GFP-tagged TRPV1. When we measured the concentration-dependence of RTx binding to 1D4-tagged TRPV1 in the presence of DkTx, we observed that the tarantula toxin enhanced the affinity for RTx by about 3-fold (Figure 2A). The effects of DkTx were concentration-dependent (Figure 2B) and were observed independent of whether the binding assay was performed at 37°C (our standard temperature) or at 30°C (Figure 2A).
The full-length TRPV1 and TRPV2 channels with 1D4 affinity tags (TETSQVAPA) on their C-termini were cloned into the YEpHIS vector and expressed in the BJ5457 strain of S. cerevisiae using the strong constitutively active PMA1 promoter, as previously described ([Moiseenkova-Bell et al., 2008]). After 48 hr of expression at 30°C in YPD media, cells were harvested by centrifugation and re-suspended in PBS buffer, supplemented with complete protease inhibitor cocktail (Roche, Indianapolis, IN) and 4-amidinophenylmethanesulfonyl fluoride hydrochloride (APMSF) (Sigma-Aldrich, St. Louis, MO). Cells were broken by passing through an Avestin homogenizer at the pressure of 35 kpsi, cell lysate was cleared by centrifugation at 8,000 g for 15 min and membranes were isolated by ultracentrifugation at 190,000 g for 1 hr. Membrane pellets were re-suspended in PBS buffer supplemented with protease inhibitors and 200 mM sucrose, flash-frozen in liquid nitrogen and stored at -70°C until RTx binding measurements.
S. cerevisiae cells overexpressing TRPV1 constructs to be used in ligand binding assays on intact cells (Figure 1E,F) were grown as for small scale expression trials. 24 hr after protein induction cells were spun down at 4000g, the supernatant was removed and the pellet resuspended in 1x PBS, normalizing OD600 to 75 for each sample, and aliquoted for storage at -80°C. ^3H-RTx binding assays on cells were performed at 37°C as previously described ([Feng et al., 2015]), but where non-specific binding of RTx was measured using cells expressing GFP alone. The binding of RTx to TRPV1 and TRPV2 in membranes (e.g. Figure 2A,B and 5C) was performed at 37°C unless otherwise stated using membranes prepared from large scale protein preparations of S. cerevisiae containing rat TRPV1 and TRPV2 with a 1D4 tag expressed using a constitutive promoter as in [Moiseenkova-Bell et al., 2008]. Data for binding of RTx to membranes was corrected for non-specific binding, determined using either excess non-radioactive ligand or heat inactivation of the protein, as previously described ([Feng et al., 2015]). The TRPV1-activating double-knot toxin (DkTx) was produced recombinantly, folded in vitro and purified as previously described ([Bae et al., 2012]). Yeast membranes were incubated with DkTx solution for 1 hr at 4°C with gentle agitation prior to undertaking RTx binding assays. […]

For `C=C(C)[C@]12C[C@@H](C)[C@@]34O[C@](Cc5ccccc5)(O[C@@H]1[C@@H]3C=C(COC(=O)Cc1ccc(O)c(OC)c1)C[C@]1(O)C(=O)C(C)=C[C@@H]41)O2` [RTx, resiniferatoxin], the “channel activation by RTx” value (WT TRPV1) was “effectively irreversible activation”, the Kd ([1]; Kd of 3H-RTx binding (Hill fit)) was 0.53 nM and 0.8 nM and the “Hill slope (nH)” value ([1]; control (no DkTx), 30°C) was 1.1. The “Hill slope (nH)” value ([1]; control (no DkTx), 37°C) was 1.24, the “Hill slope (nH)” value ([1]; in the presence of DkTx (0.7 µM), 30°C) was 1 and the “Hill slope (nH)” value ([1]; in the presence of DkTx (0.7 µM), 37°C) was 0.92.
